In ChEMBL document CHEMBL1126500, “Kinase bypass: A new strategy for anti-HIV drug design” (Bioorg Med Chem Lett, 1993):

How the values were obtained:
[1] = tested on: C8166; assay: Compound was tested for its ability to inhibit the replication of HIV-1 in C8166 T-cells; type: functional; conditions: Homo sapiens, read-out: ED50 (the source's name)
[2] = Toxic dose required to inhibit the replication of HIV-1 in C8166 T-cells; type: ADME, cell-based; conditions: human, read-out: TD50 (the source's name)

Structure (SMILES): CC(=O)O[C@H]1C[C@H](n2cc(C)c(=O)[nH]c2=O)O[C@@H]1CO
- EC50 [1]: > 200 µM
- CC50 [2]: > 200 µM

Structure (SMILES): Cc1cn([C@H]2C[C@H](OC(=O)C(Cl)(Cl)Cl)[C@@H](COP(=O)(OCC(Cl)(Cl)Cl)OCC(Cl)(Cl)Cl)O2)c(=O)[nH]c1=O
- EC50 [1]: 50 µM
- CC50 [2]: > 200 µM

Structure (SMILES): Cc1cn([C@H]2C[C@H](OC(=O)C(C)C)[C@@H](COP(=O)(OCC(Cl)(Cl)Cl)OCC(Cl)(Cl)Cl)O2)c(=O)[nH]c1=O
- EC50 [1]: 40 µM
- CC50 [2]: > 200 µM

Structure (SMILES): Cc1cn([C@H]2C[C@H](OC=O)[C@@H](COP(=O)(OCC(Cl)(Cl)Cl)OCC(Cl)(Cl)Cl)O2)c(=O)[nH]c1=O
- EC50 [1]: 100 µM
- CC50 [2]: > 200 µM

Structure (SMILES): CC(=O)O[C@H]1C[C@H](n2cc(C)c(=O)[nH]c2=O)O[C@@H]1COP(=O)(OCC(Cl)(Cl)Cl)OCC(Cl)(Cl)Cl
- EC50 [1]: 30 µM
- CC50 [2]: > 200 µM

Structure (SMILES): CCC(=O)O[C@H]1C[C@H](n2cc(C)c(=O)[nH]c2=O)O[C@@H]1COP(=O)(OCC(Cl)(Cl)Cl)OCC(Cl)(Cl)Cl
- EC50 [1]: 35 µM
- CC50 [2]: 80 µM

Structure (SMILES): Cc1cn([C@H]2C[C@H](OC(=O)CCl)[C@@H](COP(=O)(OCC(Cl)(Cl)Cl)OCC(Cl)(Cl)Cl)O2)c(=O)[nH]c1=O
- EC50 [1]: 50 µM
- CC50 [2]: 50 µM

Structure (SMILES): CCCC(=O)O[C@H]1C[C@H](n2cc(C)c(=O)[nH]c2=O)O[C@@H]1COP(=O)(OCC(Cl)(Cl)Cl)OCC(Cl)(Cl)Cl
- EC50 [1]: 75 µM
- CC50 [2]: 80 µM

Structure (SMILES): Cc1cn([C@H]2C[C@H](N=[N+]=[N-])[C@@H](CO)O2)c(=O)[nH]c1=O [ZIDOVUDINE]
- EC50 [1]: 0.01 µM
- CC50 [2]: > 200 µM
